US7495027B2, “3-aryl-4-hydroxyfuranone compounds and the human and animal health use thereof” (Wyeth, priority 2003, dated 2009)
Converted amounts (≈) assume the structure as drawn. Read-outs that look alike come from different tables or passages of the source.

Assays:
enterococci = assay: Minimum inhibitory concentration, microdilution broth method, enterococci; assay type: cell-based; settings: Mueller-Hinton broth, 18-22 hours at 35° C.; for MIC: Enterococcus faecalis
How it was run: (§1)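 MIC by microdilution, NCCLS M7-A5. Media: MH broth (staph, enterococci); MH + 5% lysed horse blood (strep). Strains incl. methicillin-, penicillin- and/or vancomycin-resistant clinical isolates.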

[1] = target: T1, S. aureus Uridine-diphosphate-N-acetvimuramoyl: L-alanine lipase, MurC (Staphylococcus aureus, UniProt Q2FXJ0); assay: biochemical
T1 sequence (Q2FXJ0 1-437): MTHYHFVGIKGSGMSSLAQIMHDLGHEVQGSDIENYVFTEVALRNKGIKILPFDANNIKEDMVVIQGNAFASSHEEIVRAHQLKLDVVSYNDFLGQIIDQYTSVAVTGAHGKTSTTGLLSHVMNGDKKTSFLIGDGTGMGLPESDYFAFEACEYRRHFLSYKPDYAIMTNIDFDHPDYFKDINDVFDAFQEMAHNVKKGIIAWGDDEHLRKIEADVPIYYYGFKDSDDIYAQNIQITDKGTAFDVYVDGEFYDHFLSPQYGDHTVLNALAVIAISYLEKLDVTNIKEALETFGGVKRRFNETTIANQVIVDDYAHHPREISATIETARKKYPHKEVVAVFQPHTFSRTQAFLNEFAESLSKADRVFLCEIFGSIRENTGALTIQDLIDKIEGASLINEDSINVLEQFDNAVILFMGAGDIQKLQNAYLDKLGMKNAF
Experimental: S. aureus and E. coli Uridine-diphosphate-N-acetvimuramoyl: L-alanine lipase, MurC
Preparation of Enzyme Solution:
A 1 mg/mL stock solution of MurC is prepared in a buffer consisting of 20 mM Tris/HCl (pH 8.5) with 2.5 μM BME. The stock solution is further diluted with the buffer to give a final enzyme concentration of 100 μg/mL for the E. coli stock solution and 70 μg/mL for the S. aureus stock solution.
Preparation of Test Compound Solutions:
All test solutions are prepared in DMSO as 10 mg/mL, then diluted with 50 mM Tris/HCl (pH 8.5) to 100 μg/mL.
Preparation of Stop Solution:
The stop solution is prepared by stirring 1 part 4.2% ammonium molydbate in 4N HCl with 2 parts 0.045% malachite green for 30 min.
In this evaluation, the inhibitory activity of a test compound against MurC, the enzyme which catalyzes the third step of bacterial cell wall bioxynthesis is determined. Experiments are performed by adding 2.5 μl buffer, 2.5 μl 0.5M NH4SO2, 5 μl 2 μM L-Ala, 5 μl enzyme solution and 6.5 μl test compound solution to each well in a 96-well microplate. After a pre-incubation period of 10 mins. at 23° C., 3.75 μl of a 0.75 μM solution of UDP-MurNac is added to each well. Following an incubation period of 10 mins. at 37° C., 210 μl stop solution and 50 μl of a 34% w/v sodium citrate solution are added and color is allowed to develop for 10 mins. at 23° C. (Lanzetta et al., Analytical Biochemistry, 1979, 95) Optical density readings are taken at 660 nm using a Molecular Devices Spectra Max 250 with Soft Max software. Controls are performed using the same procedure and omitting the addition of UDP-MurNac. […]
Using these values the IC50 is determined by linear regression analysis.

staphylococci = assay: Minimum inhibitory concentration, microdilution broth method, staphylococci; assay type: cell-based; settings: Mueller-Hinton broth, 18-22 hours at 35° C.; for MIC: Staphylococcus aureus
How it was run: as §1

[2] = target: T2, S. aureus Enopyruvyl-UPD-N-acetylglucosamine reductase, Mur B (Staphylococcus aureus, UniProt P61431); assay: biochemical; settings: (S) S. aureus enzyme; for IC50: read-out: MurB IC50 (converted)
T2 sequence (P61431 1-307): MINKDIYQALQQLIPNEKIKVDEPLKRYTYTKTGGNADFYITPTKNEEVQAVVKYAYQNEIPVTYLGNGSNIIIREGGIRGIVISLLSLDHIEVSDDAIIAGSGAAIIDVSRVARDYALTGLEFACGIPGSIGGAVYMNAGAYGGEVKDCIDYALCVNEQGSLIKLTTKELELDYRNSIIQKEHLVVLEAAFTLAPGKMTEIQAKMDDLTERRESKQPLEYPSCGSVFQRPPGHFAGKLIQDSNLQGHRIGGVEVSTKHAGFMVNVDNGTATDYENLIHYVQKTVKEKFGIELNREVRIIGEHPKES

[3] = target: E. coli Enopyruvyl-UPD-N-acetylglucosamine reductase, Mur B (Escherichia coli, UniProt P08373); assay: biochemical; settings: (E) E. coli enzyme; for IC50: read-out: MurB IC50 (converted)
[4] = E. faecalis GC 2242, read-out: MIC E. faecalis GC 2242
[5] = E. faecalis GC 4555, read-out: MIC E. faecalis GC 4555
[6] = (S) S. aureus enzyme, read-out: MurC IC50 (converted)
[7] = S. aureus GC 1131, read-out: MIC S. aureus GC 1131
[8] = S. aureus GC 4543, read-out: MIC S. aureus GC 4543

Sequence of E. coli Enopyruvyl-UPD-N-acetylglucosamine reductase, Mur B (P08373 whole entry): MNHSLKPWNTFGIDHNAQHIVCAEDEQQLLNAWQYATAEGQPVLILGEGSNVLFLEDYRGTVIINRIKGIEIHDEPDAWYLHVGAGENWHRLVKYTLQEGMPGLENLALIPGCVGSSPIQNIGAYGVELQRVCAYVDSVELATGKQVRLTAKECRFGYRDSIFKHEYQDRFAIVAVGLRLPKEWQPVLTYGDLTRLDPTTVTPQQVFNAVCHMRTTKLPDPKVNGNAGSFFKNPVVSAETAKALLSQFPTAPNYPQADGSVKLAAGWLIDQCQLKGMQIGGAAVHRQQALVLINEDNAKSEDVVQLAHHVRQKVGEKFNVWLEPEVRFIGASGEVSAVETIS

| SMILES | MIC (enterococci; [4]) [µg/mL] | MIC (enterococci; [5]) [µg/mL] | IC50 [1, 6] [µM] | MIC (staphylococci; [7]) [µg/mL] | MIC (staphylococci; [8]) [µg/mL] | IC50 [2] [µM] | MurB IC50 [3] | IC50 [3] [µM] | MIC E. faecalis GC 2242 (enterococci; E. faecalis GC 2242) [µg/mL] | MIC E. faecalis GC 4555 (enterococci; E. faecalis GC 4555) [µg/mL] | MurC IC50 ([1]; (S) S. aureus enzyme) | MIC S. aureus GC 1131 (staphylococci; S. aureus GC 1131) [µg/mL] | MIC S. aureus GC 4543 (staphylococci; S. aureus GC 4543) [µg/mL] | MurB IC50 [2] | IC50 [1] [µM] |
| --- | --- | --- | --- | --- | --- | --- | --- | --- | --- | --- | --- | --- | --- | --- | --- |
| O=C1O/C(=C\c2ccccc2-c2ccc(Cl)c(Cl)c2)C(O)=C1c1ccc(Cl)c(Cl)c1 [Example 141] | 0.5 (≈ 1.05 µM) | 1 (≈ 2.09 µM) | > 52.3 | 0.5 (≈ 1.05 µM) | 0.25 (≈ 0.523 µM) | 4.18 | 2 (E); 2 (S) μg/mL |  |  |  |  |  |  |  |  |
| CN(C)c1ccc(/C=C2\OC(=O)C(c3ccc(C(F)(F)F)cc3)=C2O)c2ccccc12 [Example 81] | 16 (≈ 37.6 µM) | 32 (≈ 75.2 µM) | 37.6 | 8 (≈ 18.8 µM) | 8 (≈ 18.8 µM) | 35.3 |  | 54.1 |  |  |  |  |  |  |  |
| COc1ccccc1-c1ccc(/C=C2\OC(=O)C(c3cccc(Cl)c3)=C2O)cc1C [Example 23] | 8 (≈ 19.1 µM) | 8 (≈ 19.1 µM) | 28.6 | 8 (≈ 19.1 µM) | 4 (≈ 9.55 µM) | 11.9 |  | 9.55 |  |  |  |  |  |  |  |
| Cc1cc(/C=C2\OC(=O)C(c3cccc(Cl)c3)=C2O)ccc1-c1ccccc1Cl [Example 30] | 4 (≈ 9.45 µM) | 4 (≈ 9.45 µM) | > 59.1 | 2 (≈ 4.72 µM) | 1 (≈ 2.36 µM) | 4.72 |  | 4.72 |  |  |  |  |  |  |  |
| CN(C)c1ccc(C=C2OC(=O)C(c3cc(Cl)cc(Cl)c3)=C2O)c2ccccc12 [Example 80] |  |  |  |  |  |  | 3 µg/mL |  | 4 (≈ 9.38 µM) | 8 (≈ 18.8 µM) | 18 (S) μg/mL | 2 (≈ 4.69 µM) | 1 (≈ 2.35 µM) | 1 µg/mL |  |
| O=C1O/C(=C\c2cccc3ccccc23)C(O)=C1c1ccc(C(F)(F)F)cc1 [Example 71] | 4 (≈ 10.5 µM) | 8 (≈ 20.9 µM) |  | 8 (≈ 20.9 µM) | 8 (≈ 20.9 µM) | 26.2 |  | 26.2 |  |  |  |  |  |  | 52.3 |
| Cc1cc(C=C2OC(=O)C(c3cc(Cl)cc(Cl)c3)=C2O)ccc1-c1ccccc1Cl [Example 31] |  |  |  |  |  |  | 2 (E); 2 (S) μg/mL |  | 1 (≈ 2.18 µM) | 2 (≈ 4.37 µM) | >25 (S) μg/mL | 0.5 (≈ 1.09 µM) | 0.25 (≈ 0.546 µM) | 2 (E); 2 (S) μg/mL |  |
| O=C1OC(=Cc2cccc3ccccc23)C(O)=C1c1ccc(C=NO)cc1 (mixture of isomers) [Example 73] |  |  |  |  |  |  | > 25 µg/mL |  | >128 | >128 | 23 µg/mL | >128 | >128 | 12 µg/mL |  |
| CCOC(=O)c1cccc(C2=C(O)C(=Cc3cccc4ccccc34)OC2=O)c1 [Example 75] |  |  |  |  |  |  | > 25 µg/mL |  | >128 | 64 (≈ 166 µM) | 20 µg/mL | 64 (≈ 166 µM) | >128 | 24 µg/mL |  |
| CN(C)c1ccc(/C=C2\OC(=O)C(c3cc(Cl)cc(Cl)c3)=C2O)c2ccccc12 [Example 79] | 4 (≈ 9.38 µM) | 8 (≈ 18.8 µM) | 56.3 | 2 (≈ 4.69 µM) | 1 (≈ 2.35 µM) | 2.35 |  | 14.1 |  |  |  |  |  |  |  |
